According to patent EP0005541A2, “Substituted piperidine, morpholine or piperidone derivatives, fungicides containing these compounds, process for their preparation and their use, and the use of these compounds as fungicides” (F. HOFFMANN-LA ROCHE & CO. Aktiengesellschaft, priority 1978, dated 1979):
≈ marks a conversion by molar mass, not a printed value.

Key:
Venturia inaequalis = Venturia inaequalis protective spray test on apple seedlings; type: in vivo; conditions: infected 2 days after spraying, read on day 13 after infection vs infected untreated control
Method: 3 Apfelpflänzchen (verteilt auf 3 Töpfe mit 5 cm Durchmesser) aus Samen der Sorte GOLDIN DELICIOUS wurden im 4- bis 5-Blattstadium mit einer wässerigen Dispersion der Testsubstanz (wie allgemein üblich aufbereitet als Spritzpulver) allseitig gründlich besprüht. Die behandelten Pflanzen wurden anschliessend während 2 Tagen bei 17°C, 70-80%rel. Luftfeuchtigkeit und einer Photoperiode von 14 Stunden weiterkultiviert. Danach erfolgte die Infektion der Apfelsämlinge durch Besprühen mit in dest. Wasser suspendierten Konidien (200'000 Konidien/ml) von Venturia inaequalis. Nach der Infektion wurden die Pflanzen im Dunkeln während 48 Stunden bei 16-18°C und einer rel. Luftfeuchtigkeit von über 90% inkubiert und anschliessend in ein schattiertes Gewächshaus mit einer Temperatur von 22-26 °C und einer rel. Luftfeuchtigkeit von über 80% überführt. Am 13. Tage nach der Infektion erfolgte die Ermittlung der durch Venturia inaequalis befallenen Blattfläche gegenüber der infizierten, nicht behandelten Kontrolle. Die Resultate sind in Tabelle II zusammengefasst.

Erysiphe graminis = Erysiphe graminis protective spray test on barley seedlings (greenhouse); type: in vivo; conditions: barley seedlings HERTA, infected 2 days after spraying, read 7 days after infection vs infected untreated control
Method: 30-40 Gerstenkeimlinge der Sorte HERTA (verteilt auf 2 Töpfe mit 7 cm Durchmesser) wurden jeweils im Einblattstadium mit einer wässerigen Dispersion der Testsubstanz (wie allgemein üblich aufbereitet als Spritzpulver) allseitig gründlich besprüht und anschliessend bei 22-26°C, 80% rel. Luftfeuchtigkeit und einer Photoperiode von 16 Stunden im Gewächshaus weiterkultiviert. Die Infektion erfolgte 2 Tage nach der Behandlung durch Bestäuben der Versuchspflanzen mit Kon dien von Erysiphe graminis. 7 Tage nach der Infektion wurde ::ie durch Erysiphe graminis befallene Blattfläche in % gegenüber derjenigen der infizierten, nicht behandelten Kontrolle ermittelt. Die Resultate sind in Tabelle I zusammengefasst.

Puccinia coronata = Puccinia coronata protective spray test on oat seedlings; type: in vivo; conditions: oat seedlings FLAEMINGSKRONE, infected 2 days after spraying, read on day 9 after infection vs infected untreated control
Method: 30-40 Haferkeimlinge der Sorte FLAEMINGSKRONE (verteilt auf 2 Töpfe mit 7 cm Durchmesser) wurden jeweils im Einblattstadium mit einer wässerigen Dispersion der Testsubstanz (wie allgemein üblich aufbereitet als Spritzpulver) allseitig gründlich besprüht und anschliessend in einer Klimakabine bei 17°C. 70-80% rel. Luftfeuchtigkeit und einer Photoperiode von 16 Stunden weiterkultiviert. Nach 2 Tagen erfolgte die Infektion der Versuchspflanzen durch Besprühen mit in dest. Wasser suspendierten Uredosporen (300'000 Sporen/ml) vor. Puccinia coronata. Danach wurden die Pflanzen während 24 Stunden bei 20°C und einer Luftfeuchtigkeit von über 90W im Dunkeln inkubiert und anschliessend in ein Gewächshaus mit einer Temperatur von 22-26 °C, einer rel. Luftfeuchtigkeit von 70% und einer Photoperiode von 18 Stunden übe führt. Am 9. Tage nach der Infektion wurde die durch Pucrinia coronata befallene Blattfläche in % gegenüber der infizierten, nicht behandelten Kontrolle ermittelt. Die ResLltate sind in Tabelle I zusammengefasst.

[1] = system: Histoplasma capsulatum Stamm Hist 2; test: microbe, parasite or virus in culture; type: cell-based; conditions: 288 h, read-out: MHC (µg/ml) Histoplasma capsulatum
[2] = system: Candida albicans Stamm H 29; test: Candida albicans in vitro agar dilution test; type: cell-based; conditions: STAMMH29, 168 h, minimal concentration fully preventing growth, tested at 100, 10, 1 mcg/ml, 7 days at 37°C, values mostly maximum values, true MHC may be lower
Method: Methode: Eine standardisierte Suspension der Hefeform von Candida albicans Stamm H 29 (ca. 300 Zellen/5 ml, das fünfzigfache der zum Angehen der Kultur notwendigen geringsten Keimzahl) wird gleichzeitig mit geeigneten Präparatlösungen in verflüssigten und auf 50°C abgekühlten Agarnährboden nach Rowley und Huber eingegossen. Lösung der Präparate in Wasser oder Polyäthylenglykol (Carbowax 400). Präparate, die weder in Wasser noch in Polyäthylenglykol löslich sind, werden fein suspendiert. Endkonzentrationen der Präparate im Nährboden 100, 10 und 1 mcg/ml. Endkonzentration von Polyäthylenglykol 5%. 7 Tage Bebrütung bei 37°C.
(§1) Auswertung: Ablesung des Pilzwachstums mit blossem Auge.
(§2) Resultate: Angabe der minimalen Präparatkonzentration in mcg/ml, die das Wachstum des Pilzes vollständig verhindert (MHC). Die Resultate sind für einige Beispiele in der nachstehenden Tabelle II zusammengefasst.

[3] = system: Trichophyten mentagrophytes Stamm 109; test: Trichophyton mentagrophytes in vitro agar dilution test; type: cell-based; conditions: STAMM109, 168 h, minimal concentration fully preventing growth, tested at 100, 10, 1, 0,1, 0,01 mcg/ml, 7 days at 37°C, values mostly maximum values, true MHC may be lower, read-out: MHC (µg/ml) Trichophyton mentagr.
Method: Methode: Eine standardisierte Suspension der Hefeform von Konidien (Sporen) von Trichophyten mentagrophytes Stamm 109 (ca. das Fünfzigfache der zum Angehen der Kultur notwendigen geringsten Keimzahl) wird gleichzeitig mit geeigneten Präparatlösungen in verflüssigten und auf 50°C abgekühlten Agarnährboden nach Rowley und Huber eingegossen. Lösung der Präparate in Wasser oder Polyäthylenglykol (Carbowax 400). Präparate, die weder in Wasser noch in Polyäthylenglykol löslich sind, werden fein suspendiert. End- . konzentrationen der Präparate im Nährboden 100, 10, 1, 0,1 und 0,01 mcg/ml. Endkonzentration von Polyäthylenglykol 5%. 7 Tage Bebrütung bei 37°C.
as §1, §2

Compound	Wirkung (in %) Venturia inaequalis (Venturia inaequalis; 5 mg/l Spritzbrühe) [%]	Wirkung (in %) Venturia inaequalis (Venturia inaequalis; 16 mg/l Spritzbrühe) [%]	Wirkung (in %) Venturia inaequalis (Venturia inaequalis; 50 mg/l Spritzbrühe) [%]	Wirkung (in %) Venturia inaequalis (Venturia inaequalis; 160 mg/l Spritzbrühe) [%]	Wirkung (in %) Erysiphe graminis (Erysiphe graminis; 5 mg/l Spritzbrühe) [%]	Wirkung (in %) Erysiphe graminis (Erysiphe graminis; 16 mg/l Spritzbrühe) [%]	Wirkung (in %) Erysiphe graminis (Erysiphe graminis; 50 mg/l Spritzbrühe) [%]	Wirkung (in %) Erysiphe graminis (Erysiphe graminis; 160 mg/l Spritzbrühe) [%]	Wirkung (in %) Puccinia coronata (Puccinia coronata; 5 mg/l Spritzbrühe) [%]	Wirkung (in %) Puccinia coronata (Puccinia coronata; 16 mg/l Spritzbrühe) [%]	Wirkung (in %) Puccinia coronata (Puccinia coronata; 50 mg/l Spritzbrühe) [%]	Wirkung (in %) Puccinia coronata (Puccinia coronata; 160 mg/l Spritzbrühe) [%]	Wirkung (in %) Puccinia coronata (Puccinia coronata; 500 mg/l Spritzbrühe) [%]	MIC [1] [µg/mL]	MIC [2] [µg/mL]	MIC [3] [µg/mL]	Wirkung (in %) Venturia inaequalis (Venturia inaequalis; 500 mg/l Spritzbrühe) [%]	Wirkung (in %) Erysiphe graminis (Erysiphe graminis; 500 mg/l Spritzbrühe) [%]
CCC(C)(C)c1ccc(C(C)=C(C)CN2CCC(=O)CC2)cc1 [1-[3-(p-tert.-Amyl-phenyl)-2,3-dimethyl-2-propenyl]-4-piperidon]	0	37	83	98	60	85	90	98	90	95	100	100	100	10 (≈ 31.9 µM)	10 (≈ 31.9 µM)	10 (≈ 31.9 µM)	–	–
CCC(C)(C)c1ccc(CC(C)CN2CCC(=O)CC2)cc1 (stereo not drawn) [1-[3-(p-tert.-Amyl-phenyl)-2-methyl-propyl]-4-piperidon]	–	–	–	–	20	80	95	100	0	10	90	98	100	10 (≈ 33.2 µM)	10 (≈ 33.2 µM)	10 (≈ 33.2 µM)	20	100
